The values below are quoted from earlier work in patent US9198935B2, “Hydrogen peroxide-based skin disinfectant” (VIROX TECHNOLOGIES INC., priority 2004, dated 2015).

Like-named read-outs stand apart in the source and are kept apart here.

The series concerns Staphylococcus aureus.

With `OO` [hydrogen peroxide], the “time to achieve a greater than 6 log reduction in Staphylococcus aureus” value by setting is: (25% w/w aqueous solution of hydrogen peroxide) 20 seconds; (solution containing 3% w/w hydrogen peroxide) 20 minutes.
